From PMC11645656, “MRGPRX4 mediates phospho-drug associated pruritus in a humanized mouse model” (Science translational medicine, 2024)
Where “and” joins values, the source holds several entries; their conditions need not be identical. Identical values can stand only once. Like-named read-outs stand apart in the source and are kept apart here.

Target: T1, MRGPRX4 (S83) (Homo sapiens, UniProt Q96LA9, L83S)
T1 construct: expressed in transfected cells
Assay: EC50 determination, intracellular calcium mobilization in MRGPRX4 stably expressed HEK293 cells (FLIPR Calcium 5, Flexstation-3)
Format: cell-based
Set-up: Fig. 1D dose-response, calcium mobilization response (individual replicate) / calcium mobilization response (Fig. 1D dose-response raw data): unit not given here
Details: for EC50: read-out: EC50; for Hill coefficient: dose-response curve fitting; for calcium mobilization response (Fig. 1D dose-response raw data): individual replicate values
Experimental: HEK293 cells and MRGPRX4 stably expressed HEK293 cells were seeded in 100 μl culture media on 96-well plates at a density of 40,000 cells per well and incubated overnight. The next day, the media were replaced with a dye-loading solution from the FLIPR Calcium 5 assay kit (Molecular Devices), diluted in Hank's Balanced Salt Solution (HBSS) with 20 mM HEPES, pH 7.4. After 1 h of incubation at 37°C, cells were allowed to recover for 10 min in the dark at room temperature prior to performing intracellular calcium mobilization assay in a Flexstation-3 instrument with SoftMax®Pro 7.1 software (Molecular Devices). Serial concentrations of tested drugs were prepared in HBSS/HEPES solution at 3X concentration. […] Compounds were tested in triplicates and the signals were averaged. Responses were determined by subtracting the minimum signal (at the baseline before adding the drug) from the maximum signal (obtained after drug stimulation). Four-parameter logistic (4PL) curve fit was used to plot the dose-response curves. […] Both dose-response curve fitting and EC50s calculation are computed with GraphPad Prism software (version: 6.o or above).

[1] = MRGPRX4 stably expressed HEK293 cells, calcium mobilization

T1 sequence (Q96LA9 whole entry L83S): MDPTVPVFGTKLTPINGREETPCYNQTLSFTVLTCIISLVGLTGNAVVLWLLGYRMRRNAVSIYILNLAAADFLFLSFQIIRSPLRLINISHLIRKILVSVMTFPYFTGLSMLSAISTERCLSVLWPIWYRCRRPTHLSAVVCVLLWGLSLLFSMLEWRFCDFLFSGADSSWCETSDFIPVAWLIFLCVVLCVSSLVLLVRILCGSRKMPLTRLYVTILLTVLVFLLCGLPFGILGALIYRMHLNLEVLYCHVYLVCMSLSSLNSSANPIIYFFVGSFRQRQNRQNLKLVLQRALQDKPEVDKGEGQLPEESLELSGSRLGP

Compound | EC50 [1] [nM] | Hill coefficient (table S1) | calcium mobilization response (Fig. 1D dose-response raw data) (concentration 4.88281e-7 M) | calcium mobilization response (Fig. 1D dose-response raw data) (concentration 9.76563e-7 M) | calcium mobilization response (Fig. 1D dose-response raw data) (concentration 1.95313e-6 M) | calcium mobilization response (Fig. 1D dose-response raw data) (concentration 3.90625e-6 M) | calcium mobilization response (Fig. 1D dose-response raw data) (concentration 7.8125e-6 M) | calcium mobilization response (Fig. 1D dose-response raw data) (concentration 1.5625e-5 M) | calcium mobilization response (Fig. 1D dose-response raw data) (concentration 3.125e-5 M) | calcium mobilization response (Fig. 1D dose-response raw data) (concentration 6.25e-5 M) | calcium mobilization response (Fig. 1D dose-response raw data) (concentration 0.00025 M) | calcium mobilization response (Fig. 1D dose-response raw data) (concentration 0.0005 M) | further results
Cn1nnc(-c2ccc(-c3ccc(N4C[C@H](COP(=O)(O)O)OC4=O)cc3F)cn2)n1 [Tedizolid phosphate] | 157 | 1.352 |  |  |  |  |  |  |  |  |  |  | 
O=C1NC(=O)C(c2ccccc2)(c2ccc(O)cc2)N1 (stereo not shown) [Hydroxyphenytoin] |  |  | -38.335 and -44.136 and -38.604 and -53.703 and -53.375 | -21.881 and -18.856 and -41.417 and -3.943 and -41.401 | -33.904 and -36.161 and -55.798 and -55.451 and -16.637 | -41.290 and -41.879 and -47.340 and -95.401 and -28.834 | -43.390 and -45.131 and -40.251 and -36.055 and -69.327 | -49.874 and -56.147 and -54.231 and -13.701 and -87.936 | -55.112 and -52.780 and -54.634 and -28.441 and -50.624 | -46.992 and -52.460 and -54.562 and -23.886 and -26.540 | -50.524 and -46.583 and -49.203 and -70.603 and -7.273 | -43.005 and -35.783 and -32.491 and -3.926 and -40.291 | Fig. 1D dose-response, calcium mobilization response (individual replicate) (Concentration 9.76563e-7 M): -13.997 and -18.908 and -71.107 and -31.060; Fig. 1D dose-response, calcium mobilization response (individual replicate) (Concentration 1.95313e-6 M): -36.810 and -38.751 and -15.180 and -28.223; Fig. 1D dose-response, calcium mobilization response (individual replicate) (Concentration 3.90625e-6 M): -53.775 and -34.726 and -87.092 and -4.044; Fig. 1D dose-response, calcium mobilization response (individual replicate) (Concentration 7.8125e-6 M): -6.273 and -4.175 and -11.050 and -115.284; Fig. 1D dose-response, calcium mobilization response (individual replicate) (Concentration 1.5625e-5 M): -23.391 and -58.915 and -49.315 and -20.542; Fig. 1D dose-response, calcium mobilization response (individual replicate) (Concentration 3.125e-5 M): -58.615 and -86.247 and -12.733 and -61.272; Fig. 1D dose-response, calcium mobilization response (individual replicate) (Concentration 6.25e-5 M): -83.462 and -33.574 and -53.783 and -75.169; Fig. 1D dose-response, calcium mobilization response (individual replicate) (Concentration 0.00025 M): -7.298 and -62.458 and -53.853 and -44.871; Fig. 1D dose-response, calcium mobilization response (individual replicate) (Concentration 0.0005 M): -68.434 and -44.648 and -66.219 and -35.443; Fig. 1D dose-response, calcium mobilization response (individual replicate) (Concentration 0.001 M): -67.062 and -39.432 and -24.454 and -47.392
CCC1(c2ccccc2)NC(=O)NC1=O (stereo not shown) [Phenylethylhydantoin] |  |  | -36.084 and -46.830 and -25.168 and -25.995 and -41.232 and -40.854 and -21.141 and -50.216 and -36.724 | -38.906 and -40.253 and -36.747 and -35.963 and -45.530 and -34.413 and -90.977 and -3.770 and -21.159 | -39.850 and -47.267 and -41.649 and -23.282 and -47.762 and -57.722 and -64.532 and -47.904 and -16.330 | -41.691 and -47.727 and -40.039 and -70.885 and -55.070 and -3.502 and -50.619 and -10.963 and -67.875 | -54.750 and -48.340 and -51.910 and -49.343 and -57.168 and -48.489 and -88.910 and -37.952 and -28.139 | -44.078 and -57.965 and -55.228 and -49.591 and -44.073 and -63.607 and -50.842 and -52.493 and -53.936 | -43.665 and -49.381 and -54.677 and -65.107 and -76.615 and -6.000 and -68.649 and -47.158 and -31.916 | -55.764 and -53.161 and -56.227 and -7.830 and -129.161 and -28.161 and -12.225 and -71.995 and -80.931 | -45.731 and -49.520 and -42.661 and -67.761 and -17.367 and -52.783 and -55.357 and -16.011 and -66.544 | -37.983 and -36.120 and -36.080 and -77.623 and -5.808 and -26.753 and -42.653 and -37.379 and -30.151 | 
Dexamethasone palmitate |  | 1.502 |  |  |  |  |  |  |  |  |  |  | Fig. 1D dose-response, calcium mobilization response (individual replicate) (Concentration 9.76563e-7 M): -18.225 and -22.739 and -7.984 and -16.162 and -15.021 and -13.070 and 2.408 and -2.265 and -6.745; Fig. 1D dose-response, calcium mobilization response (individual replicate) (Concentration 1.95313e-6 M): -6.511 and -7.350 and 3.472 and -4.164 and -15.203 and -5.200 and 2.167 and -2.706 and -6.484; Fig. 1D dose-response, calcium mobilization response (individual replicate) (Concentration 3.90625e-6 M): -3.747 and 10.479 and -10.773 and -3.912 and -11.558 and -2.335 and 1.476 and 2.520 and -1.305; Fig. 1D dose-response, calcium mobilization response (individual replicate) (Concentration 7.8125e-6 M): -30.862 and -16.831 and -16.502 and -2.263 and -11.827 and -17.176 and -5.630 and 3.868 and -9.469; Fig. 1D dose-response, calcium mobilization response (individual replicate) (Concentration 1.5625e-5 M): -23.657 and 30.652 and -26.797 and 1.282 and -0.449 and -0.613 and 8.674 and 6.385 and -0.252; Fig. 1D dose-response, calcium mobilization response (individual replicate) (Concentration 3.125e-5 M): 88.602 and 69.392 and 95.399 and 41.739 and 60.580 and 65.413 and 42.682 and 17.645 and 71.002; Fig. 1D dose-response, calcium mobilization response (individual replicate) (Concentration 6.25e-5 M): 155.837 and 167.386 and 158.681 and 72.199 and 72.835 and 105.522 and 59.878 and 78.793 and 128.090; Fig. 1D dose-response, calcium mobilization response (individual replicate) (Concentration 0.00025 M): 281.902 and 277.911 and 231.255 and 145.042 and 106.318 and 115.112 and 141.417 and 113.731 and 129.258; Fig. 1D dose-response, calcium mobilization response (individual replicate) (Concentration 0.0005 M): 346.180 and 361.547 and 346.996 and 139.147 and 134.114 and 120.302 and 148.855 and 141.620 and 226.966; Fig. 1D dose-response, calcium mobilization response (individual replicate) (Concentration 0.001 M): 354.688 and 329.354 and 273.082 and 127.830 and 137.045 and 134.530 and 140.483 and 130.182 and 155.284
CNC[C@H](O)[C@@H](O)[C@H](O)[C@H](O)CO.CNC[C@H](O)[C@@H](O)[C@H](O)[C@H](O)CO.C[C@@H](O[C@H]1OCCN(Cc2nn(P(=O)(O)O)c(=O)[nH]2)[C@H]1c1ccc(F)cc1)c1cc(C(F)(F)F)cc(C(F)(F)F)c1 [Fosaprepitant dimeglumine] | 7000 | 3.670 |  |  |  |  |  |  |  |  |  |  | 
C[C@]12CCC(=O)C=C1CC[C@@H]1[C@@H]2[C@@H](O)C[C@@]2(C)[C@H]1CC[C@]2(O)C(=O)COP(=O)([O-])[O-].[Na+].[Na+] [Hydrocortisone sodium phosphate] | 328 | 1.411 |  |  |  |  |  |  |  |  |  |  | 
CC[C@@]1(c2ccccc2)NC(=O)N(C)C1=O [(S)-mephenytoin] |  |  | -20.370 and -28.895 and -20.737 and -16.113 and -11.794 and -17.288 and -8.111 and -30.820 and -18.667 | -14.910 and -10.110 and -14.446 and -15.834 and -19.023 and -15.341 and -3.659 and -28.710 and -12.463 | -18.478 and -17.267 and -18.784 and -17.855 and -11.934 and -14.257 and -17.051 and -23.967 and -8.270 | -5.757 and -11.730 and -8.574 and 8.283 and -10.074 and -11.646 and -8.442 and -1.458 and -9.849 | 26.923 and 9.795 and -10.857 and -10.275 and -14.955 and -11.140 and -1.065 and -2.234 and -1.955 | 9.387 and -3.753 and 17.104 and -13.591 and -6.859 and -9.499 and -1.610 and -1.506 and -0.489 | 7.318 and 16.609 and 24.858 and -11.449 and -15.821 and -20.419 and 0.176 and 0.206 and 0.166 | 20.640 and 67.105 and 19.512 and -1.060 and 14.827 and -6.587 and 28.221 and 5.104 and 23.894 | 56.723 and 43.018 and 21.772 and 14.354 and 43.622 and 16.555 and 1.733 and 79.374 and 16.915 | -10.031 and 14.167 and 0.209 and 8.392 and 6.582 and -2.785 and 5.320 and 0.368 and 2.580 | 
C[C@]12CCC(=O)C=C1CC[C@@H]1[C@@H]2[C@@H](O)C[C@@]2(C)[C@H]1CC[C@]2(O)C(=O)COC(=O)CCC(=O)O [Hydrocortisone 21-hemisuccinate] |  |  |  |  |  |  |  |  |  |  |  |  | EC50 (table S1): > 500000 nM
CC[C@]1(c2ccccc2)NC(=O)N(C)C1=O [(R)-mephenytoin] |  |  | -28.494 and -0.685 and -28.419 and -1.368 and -39.430 and -16.800 and -4.015 and -27.858 and -25.726 | -7.288 and -19.217 and -18.327 and -17.700 and -9.222 and -17.910 and -11.024 and -17.403 and -16.404 | -4.806 and -21.809 and -22.673 and -18.368 and -20.701 and -10.218 and -45.398 and -2.556 and -1.333 | -11.313 and -5.626 and -2.810 and -4.150 and -5.388 and -10.211 and -8.758 and -3.374 and -7.616 | -13.282 and -38.673 and -86.390 and -55.539 and -30.274 and -52.531 and -40.546 and -63.168 and -34.632 | -73.173 and -60.784 and -5.824 and -52.600 and -25.248 and -61.934 and -57.691 and -23.069 and -59.022 | -77.603 and -4.145 and -51.921 and -55.448 and -9.903 and -68.319 and -36.832 and -68.498 and -28.339 | -22.173 and -48.350 and -3.409 and -11.978 and -30.555 and -31.399 and -12.734 and -38.906 and -22.292 | -56.927 and -11.154 and -10.026 and -28.148 and -45.428 and -4.530 and -28.870 and -12.606 and -36.630 | -44.336 and -37.065 and -31.962 and -46.134 and -28.961 and -38.269 and -19.967 and -86.384 and -7.013 | 
C[C@]12C=CC(=O)C=C1CC[C@@H]1[C@@H]2[C@@H](O)C[C@@]2(C)[C@H]1CC[C@]2(O)C(=O)COP(=O)(O)O [Prednisolone phosphate] | 267 | 0.753 |  |  |  |  |  |  |  |  |  |  | 
